Measured values from the NIST ThermoML archive (doi:10.1021/je050402s).

Test: xn = mol fraction of the nth substance listed
Settings: 100.5 kPa, Liquid

CCC(=O)OCc1ccccc1 [benzyl propanoate] + CCO
viscosity [mPa·s], Capillary tube (Ostwald / Ubbelohde) method
Settings	288.15 K	298.15 K	308.15 K	318.15 K
x1 = 0.05	1.352	1.115	0.929	0.777
x1 = 0.1	1.379	1.14	0.949	0.795
x1 = 0.15	1.42	1.173	0.976	0.819
x1 = 0.2	1.466	1.211	1.009	0.848
x1 = 0.25	1.516	1.253	1.044	0.879
x1 = 0.3	1.571	1.298	1.084	0.913
x1 = 0.35	1.631	1.348	1.127	0.95
x1 = 0.4	1.694	1.401	1.171	0.988
x1 = 0.45	1.757	1.454	1.217	1.027
x1 = 0.5	1.821	1.509	1.263	1.067
x1 = 0.55	1.886	1.564	1.31	1.107
x1 = 0.6	1.952	1.621	1.358	1.148
x1 = 0.65	2.019	1.678	1.407	1.19
x1 = 0.7	2.088	1.737	1.457	1.233
x1 = 0.75	2.158	1.797	1.509	1.278
x1 = 0.8	2.23	1.858	1.562	1.323
x1 = 0.85	2.305	1.921	1.617	1.37
x1 = 0.9	2.383	1.986	1.674	1.419
x1 = 0.95	2.463	2.053	1.729	1.468
x1 = 1	2.55	2.123	1.787	1.515

mass density [kg/m3]
Settings	288.15 K	298.15 K	308.15 K	318.15 K
x1 = 0.05	825.63	816.86	807.99	798.97
x1 = 0.1	852.43	843.5	834.48	825.3
x1 = 0.15	875.21	866.17	857.03	847.75
x1 = 0.2	894.95	885.82	876.6	867.25
x1 = 0.25	912.16	902.96	893.68	884.27
x1 = 0.3	927.38	918.13	908.8	899.34
x1 = 0.35	940.83	931.54	922.17	912.69
x1 = 0.4	952.87	943.55	934.16	924.65
x1 = 0.45	963.72	954.39	944.97	935.46
x1 = 0.5	973.57	964.22	954.79	945.28
x1 = 0.55	982.43	973.07	963.63	954.12
x1 = 0.6	990.54	981.17	971.74	962.24
x1 = 0.65	997.98	988.61	979.19	969.71
x1 = 0.7	1004.81	995.44	986.04	976.58
x1 = 0.75	1011.09	1001.73	992.35	982.93
x1 = 0.8	1016.98	1007.63	998.28	988.88
x1 = 0.85	1022.5	1013.15	1003.82	994.46
x1 = 0.9	1027.59	1018.25	1008.96	999.64
x1 = 0.95	1032.37	1023.06	1013.8	1004.53
x1 = 1	1036.86	1027.6	1018.38	1009.15

CCOC(=O)c1ccccc1O [ethyl 2-hydroxybenzoate] + CCO
Settings	mass density, 288.15 K [kg/m3]	mass density, 298.15 K [kg/m3]	mass density, 308.15 K [kg/m3]	mass density, 318.15 K [kg/m3]	viscosity, 288.15 K [mPa·s]	viscosity, 298.15 K [mPa·s]	viscosity, 308.15 K [mPa·s]	viscosity, 318.15 K [mPa·s]
x1 = 0.05	835.47	826.63	817.7	808.61	1.398	1.145	0.953	0.802
x1 = 0.1	871.02	862	852.86	843.56	1.467	1.197	0.998	0.836
x1 = 0.15	901.89	892.7	883.41	873.95	1.533	1.258	1.043	0.877
x1 = 0.2	928.98	919.64	910.21	900.63	1.615	1.322	1.094	0.915
x1 = 0.25	952.87	943.42	933.9	924.22	1.708	1.388	1.147	0.957
x1 = 0.3	974.13	964.62	955.01	945.25	1.8	1.455	1.198	0.999
x1 = 0.35	993.22	983.64	973.96	964.15	1.902	1.526	1.254	1.045
x1 = 0.4	1010.45	1000.81	991.08	981.22	2.001	1.598	1.313	1.093
x1 = 0.45	1026.08	1016.38	1006.61	996.72	2.104	1.677	1.373	1.141
x1 = 0.5	1040.36	1030.63	1020.8	1010.88	2.209	1.757	1.435	1.192
x1 = 0.55	1053.4	1043.63	1033.79	1023.85	2.317	1.838	1.498	1.242
x1 = 0.6	1065.37	1055.57	1045.7	1035.76	2.428	1.921	1.561	1.294
x1 = 0.65	1076.35	1066.53	1056.65	1046.7	2.543	2.006	1.627	1.347
x1 = 0.7	1086.51	1076.67	1066.79	1056.85	2.664	2.096	1.695	1.403
x1 = 0.75	1095.97	1086.12	1076.24	1066.31	2.8	2.187	1.766	1.463
x1 = 0.8	1104.72	1094.88	1085.02	1075.11	2.943	2.288	1.846	1.527
x1 = 0.85	1112.93	1103.09	1093.24	1083.37	3.1	2.398	1.932	1.596
x1 = 0.9	1120.61	1110.81	1101	1091.17	3.268	2.522	2.03	1.678
x1 = 0.95	1127.85	1118.07	1108.31	1098.55	3.503	2.706	2.163	1.781
x1 = 1	1134.72	1125	1115.29	1105.6	3.694	2.831	2.253	1.842
